# Assay results reported in publication PMC10958225, “Therapeutic potential of orally applied KB-R7943 in streptozotocin-induced neuropathy in rats” (Heliyon, 2024).
# Read-outs that look alike come from different tables or passages of the source.
# Assay: Pilot PK study of orally applied KB-R7943 in control and STZ-induced diabetic rats (LC-MS/MS)
# Assay type: in vivo, rat
# Conditions: for AUC(0-inf) / Cmax / Tmax / half-life / AUC(0-t) / Kp: Wistar, rat, po, 10 mg/kg; for AUC(0-t): read-out: AUC(0-24); for Kp: read-out: AUC(0-24) tissue/AUC (0-24) plasma; for Vd (volume of distribution): dose/(λ × AUC 0–24); for Cl (clearance): dose/AUC0-24
# Protocol: Chromatographic separation was achieved by injecting 5 μL of the sample extract (on each instrument) into a Zorbax SB-C8 150 mm × 4.6 mm × 1.8 μm column. The mobile phase was a mixture in a gradient mode of two components: solvent A - 0.1% formic acid in water and solvent B - 0.1% formic acid in acetonitrile. The flow rate was set to 0.400 ml/min with the following gradient program: 0.0–0.5 min 90% solvent A, 0.5–10.0 min 10% solvent A, 10.0–12.0 min 10% solvent A, 12.0–12.1 min 90% solvent A, 12.1–13.0 min 90% solvent A. Mass spectrometric detection was performed with positive electrospray (ESI(+)). Analytes were determined by selecting two characteristic target reactions (MRM transitions) and the retention time of the analytes. The following MS parameters were kept constant during the analysis: nebulizer voltage 4800 V for positive ionization. The temperature of the cone was set at 300 °C, the temperature of the heated probe at 400 °C, the gas flowed through the nebulizer at 3 l/min, and the flow rate of the drying gas was 10 l/min. Two product ions and one precursor ion were selected for analyte identification (Table 1).
# 200 mg of the sample (plasma, urine, homogenate) was transferred into 1.5 ml Eppendorf tubes, 10 μl of the internal standard solution was added and thoroughly mixed using a rotary shaker, and then 1 ml of the extracting solution of 0.1% formic acid in acetonitrile, was added. After ultrasonic stirring for 15 min, the tubes were centrifuged at 14,000 rpm for 5 min. Approximately 1 ml of the supernatant was decanted and transferred to a 15 ml Falcon plastic tube, 1 ml of the extracting solution (0.1% formic acid in acetonitrite) was added to the precipitate, and the extraction procedure was repeated. […] successive extracts were combined, 3 ml of hexane was added, and mixed on a rotary shaker for 5 min, after which the top layer of hexane was separated, and the purification procedure was repeated 2 more times. The purified extract was transferred to a 5 ml glass vial and evaporated to dryness in an FMS Super Vap 24 at 45 °C under nitrogen flow. 200 μL of the extractant was added to the vials, and the remains of the analyte were washed off the walls of the vial by stirring the solution on a rotary shaker for 3 min, after which the resulting solution was transferred into glass vials for HPLC analysis. With each batch of samples, appropriate matrix controls were prepared and extracted with the addition of KB- R7943 at 0, 0.1, 1, 10, 100, 1000, 5000, 20,000, and 200,000 ng/g and extracted simultaneously with the samples (Fig. 2).
# Experiment 1 (Fig. 3A) was designed as a pilot PK study to assess the body distribution of orally applied KB-R7943 and to inform about some important PK parameters. Two groups, i.e., controls (n = 9) and STZ-induced diabetic models (n = 9), were included in the experiment. Each rat was placed in an individual metabolic cage and kept there until the administration of the drug. The KB-R7943 was applied once, p.o., in a 10 mg/kg dose with gavage. OraPlus was a vehiculum (16 gauge feeding tube 10 ml/kg). After applying of the KB-R7943, each rat was returned to their cage, and blood and urine samples were collected at 1st, 6th, and 24th hours (different n = 3 at each time-point). Metabolic cages were specially designed to separate feces from urine through the funnel, and a separation cone was used.
# Blood samples were collected in EDTA-containing tubes with cardiopunction under ketamine-xylasine anesthesia (100 mg/kg and 10 mg/kg, respectively). After 1 h incubation (+4/+8 °C), blood was centrifugated 1000 g, and the plasma was used for the analysis after that.
# Isolation of tissue samples of the heart and parts of the brain was performed after perfusion of the upper body of the rat with a phosphate-buffered saline (PBS) using a perfusion pump (BT100-2J LongerPump, Halma PLC, UK). Homogenates were prepared as 1:4 ratios (v/v) with PBS and stored at −80 °C until analysis. […]
# [1] = AUC tissue/AUC plasma, 10 mg/kg p.o. once
# [2] = cortex, STZ-diabetic rats, 10 mg/kg p.o. once
# [3] = cortex, control rats, 10 mg/kg p.o. once
# [4] = cortex, cortex, STZ-diabetic rats, 10 mg/kg p.o. once
# [5] = cortex, cortex, control rats, 10 mg/kg p.o. once
# [6] = heart, STZ-diabetic rats, 10 mg/kg p.o. once
# [7] = heart, control rats, 10 mg/kg p.o. once
# [8] = hippocampus, STZ-diabetic rats, 10 mg/kg p.o. once
# [9] = hippocampus, control rats, 10 mg/kg p.o. once
# [10] = hippocampus, hippocampus, STZ-diabetic rats, 10 mg/kg p.o. once
# [11] = hippocampus, hippocampus, control rats, 10 mg/kg p.o. once
# [12] = hypothalamus, STZ-diabetic rats, 10 mg/kg p.o. once
# [13] = hypothalamus, control rats, 10 mg/kg p.o. once
# [14] = hypothalamus, hypothalamus, STZ-diabetic rats, 10 mg/kg p.o. once
# [15] = hypothalamus, hypothalamus, control rats, 10 mg/kg p.o. once
# [16] = plasma, STZ-diabetic rats, 10 mg/kg p.o. once
# [17] = plasma, control rats, 10 mg/kg p.o. once
# [18] = urine, STZ-diabetic rats, 10 mg/kg p.o. once
# [19] = urine, control rats, 10 mg/kg p.o. once
smiles,measurement,setting,value
"N=C(N)SCCc1ccc(OCc2ccc([N+](=O)[O-])cc2)cc1 [KB-R7943, [(2-{4-[(4-nitrophenyl)methoxy]phenyl}ethyl)sulfanyl]methanimidamide]","heart penetration, times higher in control group vs. diabetic rats",[1],1.2 times
same,"hippocampus penetration, times higher in control group vs. diabetic rats",[1],over 2.5 times
same,AUC(0-inf),[2],1000 ng·h/mL
same,Cmax,[2],103 ng/mL
same,Tmax,[2],1 h
same,half-life,[2],7.7 h
same,Cmax,[3],11.5 ng/mL
same,Tmax,[3],24 h
same,AUC(0-t),[4],880 ng·h/mL
same,Kp,[4],14.5
same,AUC(0-t),[5],232 ng·h/mL
same,Kp,[5],14.2
same,Cmax,[6],5600 ng/mL
same,Tmax,[6],1 h
same,half-life,[6],5.7 h
same,Cmax,[7],893 ng/mL
same,Tmax,[7],1 h
same,half-life,[7],7 h
same,Kp,"heart, heart, STZ-diabetic rats, 10 mg/kg p.o. once",499
same,Kp,"heart, heart, control rats, 10 mg/kg p.o. once",622
same,AUC(0-inf),[8],865 ng·h/mL
same,Cmax,[8],57 ng/mL
same,Tmax,[8],1 h
same,half-life,[8],11.6 h
same,Cmax,[9],39.6 ng/mL
same,Tmax,[9],24 h
same,AUC(0-t),[10],645 ng·h/mL
same,Kp,[10],10.7
same,AUC(0-t),[11],449 ng·h/mL
same,Kp,[11],27.4
same,AUC(0-inf),[12],1020 ng·h/mL
same,Cmax,[12],75 ng/mL
same,Tmax,[12],1 h
same,half-life,[12],13.7 h
same,Cmax,[13],9.5 ng/mL
same,Tmax,[13],24 h
same,AUC(0-t),[14],668 ng·h/mL
same,Kp,[14],11
same,AUC(0-t),[15],215 ng·h/mL
same,Kp,[15],13.1
same,AUC(0-inf),[16],61.7 ng·h/mL
same,Cmax,[16],11 ng/mL
same,Tmax,[16],1 h
same,half-life,[16],4.2 h
same,AUC(0-inf),[17],17.7 ng·h/mL
same,Cmax,[17],3.2 ng/mL
same,Tmax,[17],1 h
same,half-life,[17],6.1 h
same,AUC(0-t),"plasma, plasma, STZ-diabetic rats, 10 mg/kg p.o. once",60.6 ng·h/mL
same,AUC(0-t),"plasma, plasma, control rats, 10 mg/kg p.o. once",16.4 ng·h/mL
same,Tmax,"plasma, systemic circulation after oral application, rats",~1 h
same,Cmax,[18],59.3 ng/mL
same,Tmax,[18],24 h
same,Cmax,[19],47.2 ng/mL
same,Tmax,[19],24 h
same,AUC(0-t),"urine, urine, STZ-diabetic rats, 10 mg/kg p.o. once",974 ng·h/mL
same,AUC(0-t),"urine, urine, control rats, 10 mg/kg p.o. once",727 ng·h/mL
same,β of linear regression Ln(Conc) vs time,"cortex concentration, controls, 10 mg/kg p.o. once","β = 0.015, p = 0.703"
same,β of linear regression Ln(Conc) vs time,"cortex concentration, diabetes, 10 mg/kg p.o. once","β = −0.075, p = 0.008"
same,%Extrap,[2],"12,20%"
same,ƛ (terminal slope),[2],−0.07
same,%Extrap,[3],"142,00%"
same,ƛ (terminal slope),[3],0.02
same,β of linear regression Ln(Conc) vs time,"heart concentration, controls, 10 mg/kg p.o. once","β = −0.107, p = 0.003"
same,β of linear regression Ln(Conc) vs time,"heart concentration, diabetes, 10 mg/kg p.o. once","β = −0.125, p = 0.026"
same,%Extrap,[6],"6,20%"
same,ƛ (terminal slope),[6],−0.12
same,%Extrap,[7],"8,4%"
same,ƛ (terminal slope),[7],−0.11
same,β of linear regression Ln(Conc) vs time,"hippocampus concentration, controls, 10 mg/kg p.o. once","β = −0.037, p = 0.283"
same,β of linear regression Ln(Conc) vs time,"hippocampus concentration, diabetes, 10 mg/kg p.o. once","β = −0.048, p = 0.097"
same,%Extrap,[8],"25,40%"
same,ƛ (terminal slope),[8],−0.05
same,ƛ (terminal slope),[9],0.04
same,β of linear regression Ln(Conc) vs time,"hypothalamus concentration, controls, 10 mg/kg p.o. once","β = −0.007, p = 0.830"
same,β of linear regression Ln(Conc) vs time,"hypothalamus concentration, diabetes, 10 mg/kg p.o. once","β = −0.045, p = 0.127"
same,%Extrap,[12],"34,50%"
same,ƛ (terminal slope),[12],−0.04
same,%Extrap,[13],"111,50%"
same,ƛ (terminal slope),[13],0.01
same,β of linear regression Ln(Conc) vs time,"plasma concentration, controls, 10 mg/kg p.o. once","β = 0.094, p = 0.036"
same,β of linear regression Ln(Conc) vs time,"plasma concentration, diabetes, 10 mg/kg p.o. once","β = 0.163, p = 0.017"
same,"AUC(0-24), times higher in rats with diabetes vs. controls","plasma, 10 mg/kg p.o. once",Over 3 times
same,"Vd, times lower in rats with diabetes vs. controls","plasma, 10 mg/kg p.o. once",over 7 times
same,"decline of the plasma concentration, rats with diabetes vs. controls","plasma, 10 mg/kg p.o. once",over one and half times faster decline
same,"systemic clearance, times lower in rats with diabetes vs. controls","plasma, 10 mg/kg p.o. once",over 4 times
same,%Extrap,[16],"1,90%"
same,ƛ (terminal slope),[16],−0.16
same,Vd (volume of distribution),[16],288.78 L
same,Cl (clearance),[16],46.20 L/h
same,%Extrap,[17],"7,40%"
same,Vd (volume of distribution),[17],2100.27 L
same,Cl (clearance),[17],189.02 L/h
same,β of linear regression Ln(Conc) vs time,"urine concentration, controls, 10 mg/kg p.o. once","β = −0.074, p = 0.158"
same,β of linear regression Ln(Conc) vs time,"urine concentration, diabetes, 10 mg/kg p.o. once","β = −0.041, p = 0.455"
same,%Extrap,[18],"196,30%"
same,ƛ (terminal slope),[18],−0.04
same,ƛ (terminal slope),[19],0.07
